Results as given in patent publication US7238708B2, “Glucose sensor” (The Regents of the University of California, priority 2004, dated 2007).
“And” between values parts separate entries of the source, which are not always exact repeats. Equal values may be shown once. Read-outs that look alike come from different tables or passages of the source. Blank lines part the entries; values can stand above or below the compound they belong to.

How the values were obtained:
hSGLT3 [1] = target: T1, hSGLT3 (Homo sapiens, UniProt Q9NY91); assay: two-electrode voltage-clamp, membrane potential of hSGLT3-expressing Xenopus oocytes; type: cell-based; conditions: for effect on the membrane potential: concentrations as high as 100 mM; for inhibition of glucose-induced membrane depolarization: 250 μM phlorizin; for membrane depolarization: 5 mM sugar, Na+ buffer pH 7.5, single oocyte; for effect on the membrane potential (qualitative): exposure of hSGLT3 oocytes to sugar
T1 construct: The complete hSGLT3 clone was created by ligation of this PCR product to the 3′-end of hSGLT3 at the HindIII site; expressed in transfected cells; host or cells: Xenopus laevis oocytes injected with hSGLT3 cRNA
T1 sequence (Q9NY91 1-659): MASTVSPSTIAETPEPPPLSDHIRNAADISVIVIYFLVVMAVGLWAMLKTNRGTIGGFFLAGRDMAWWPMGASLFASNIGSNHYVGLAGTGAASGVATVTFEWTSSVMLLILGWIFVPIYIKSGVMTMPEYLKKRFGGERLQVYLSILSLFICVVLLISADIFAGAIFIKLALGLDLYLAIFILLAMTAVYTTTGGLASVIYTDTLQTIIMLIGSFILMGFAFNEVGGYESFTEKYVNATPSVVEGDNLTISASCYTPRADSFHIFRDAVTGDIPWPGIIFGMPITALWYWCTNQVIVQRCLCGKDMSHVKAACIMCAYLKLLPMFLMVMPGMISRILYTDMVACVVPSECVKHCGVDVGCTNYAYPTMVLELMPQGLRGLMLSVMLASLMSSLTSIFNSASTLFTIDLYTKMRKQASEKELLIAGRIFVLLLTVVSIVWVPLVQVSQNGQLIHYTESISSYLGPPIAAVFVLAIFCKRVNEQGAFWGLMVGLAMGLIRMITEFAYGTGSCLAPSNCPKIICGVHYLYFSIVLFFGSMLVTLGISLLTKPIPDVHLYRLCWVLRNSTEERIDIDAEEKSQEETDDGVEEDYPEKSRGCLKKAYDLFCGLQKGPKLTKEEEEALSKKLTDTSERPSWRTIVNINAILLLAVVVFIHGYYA
Description: (§1) Expression of hSGLT3 in oocytes. Stage VI oocytes from Xenopus laevis (Nasco, Fort Atkinson, Wis.) were defolliculated and injected with hSGLT3 cRNA and maintained at 18° C. in modified Barth's medium containing gentamycin (5 mg/ml) and penicillin (100 units/ml)/streptomycin (100 μg/ml). Each oocyte was injected with 20 ng of cRNA. Experiments were performed at 22±1° C., 3-9 days after the injection.
(§2) Two electrode-voltage clamp. Oocytes expressing SGLTs and control oocytes were placed in the chamber, impaled with the two electrodes and continuously superfused with the required medium (Loo et al. (1998) Proc. Natl. Acad. Sci. USA 95:7789-7794). Membrane potential changes and ionic currents were measured when adding different sugar concentrations. Sugar-specific changes in current were the difference between the values measured with sugar and the preceding value in buffer alone. Na^+ buffer contained 100 mM NaCl, 2 mM KCl, 1 mM CaCl2, 1 mM MgCl2 and 10 mM HEPES/tris (pH 7.5). In Na^+-free buffer, choline Cl replaced NaCl, and for the experiments at pH 5.0 HEPES/tris was replaced with MES/tris. In some experiments at low pH we simultaneously recorded the intracellular pH of the oocyte using the fluorescent dye BCECF-AM (15, 16). The apparent affinity (K0.5) and apparent maximal current (Imax) were calculated with the equation [1]=Imax. [S]/(K0.5+[S]), using the non-linear fitting method in SigmaPlot (SPSS, Chicago, Ill.) where [S] is the sugar concentration. The results are illustrated by experiments on single oocytes, but each was representative of at least 3-8 different oocytes.
(§3) Using the techniques described above, a two-electrode voltage-clamp was used to monitor hSGLT3's electrical properties in Xenopus oocytes. The oocytes were exposed to candidate compounds, and the depolarization of membrane potential was recorded.

guinea pig ileum = assay: mechanical activity of guinea pig ileum
[2] = injected into the cerebrospinal fluid; cited from earlier work
[3] = system: glucose-responsive neurons in the hypothalamus; conditions: cited from earlier work
hSGLT3 [4] = target: T1, hSGLT3; assay: sugar-induced currents in hSGLT3-expressing oocytes under voltage clamp; type: cell-based
Description: as §1, §2

hSGLT3 [5] = target: T1, hSGLT3; assay: simultaneous [14C]-glucose uptake and sugar-induced current in hSGLT3-expressing oocytes; type: cell-based
Description: as §1
(§4) Uptake experiments. Control oocytes or oocytes expressing a SGLT were superfused with a buffer solution containing either 100 mM NaCl or choline chloride at pH 7.5 or 5 while the plasma membrane potential was clamped at voltages between −50 and −110 mV. […] After the sugar was removed from the bathing solution the current returned to the baseline. The oocyte was washed, solubilized and glucose uptake determined using a scintillation spectrometer. Sugar-induced current was obtained by integrating the difference between baseline and the glucose-dependent current. The current, measured simultaneously with sugar uptake, was converted to its molar equivalent of univalent charge. [^14C]-glucose uptake in non-injected oocytes from the same batch of oocytes was used as a control.

pSGLT3 = target: T2, pSGLT3 (Sus scrofa, UniProt P31636); assay: ratio of positive ion uptake and sugar uptake in pSGLT3-expressing oocytes; type: cell-based, pig
T2 construct: expressed in transfected cells; host or cells: Xenopus laevis oocytes expressing pig SGLT3
T2 sequence (P31636 1-660): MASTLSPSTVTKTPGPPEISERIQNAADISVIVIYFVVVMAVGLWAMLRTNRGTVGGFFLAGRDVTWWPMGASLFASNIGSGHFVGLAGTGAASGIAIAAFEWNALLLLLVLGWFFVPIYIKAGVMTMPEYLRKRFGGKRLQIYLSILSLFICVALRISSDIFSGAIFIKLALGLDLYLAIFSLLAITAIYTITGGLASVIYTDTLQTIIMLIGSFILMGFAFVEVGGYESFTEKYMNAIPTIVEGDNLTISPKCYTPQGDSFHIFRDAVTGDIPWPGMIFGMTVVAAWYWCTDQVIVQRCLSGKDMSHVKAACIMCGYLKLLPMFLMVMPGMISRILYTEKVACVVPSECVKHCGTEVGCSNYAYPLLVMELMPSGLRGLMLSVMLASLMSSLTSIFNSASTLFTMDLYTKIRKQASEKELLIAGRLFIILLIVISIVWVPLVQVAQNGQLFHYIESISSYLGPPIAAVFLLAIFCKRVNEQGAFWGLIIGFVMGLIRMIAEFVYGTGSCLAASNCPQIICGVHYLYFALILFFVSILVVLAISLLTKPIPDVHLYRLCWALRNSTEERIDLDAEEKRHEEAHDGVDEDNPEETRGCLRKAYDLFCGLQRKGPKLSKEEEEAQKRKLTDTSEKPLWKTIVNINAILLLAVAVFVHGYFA
Description: as §4

SGLT1 [6] = target: T3, SGLT1 (Homo sapiens, UniProt P13866); design: host or cells: Xenopus laevis oocytes expressing hSGLT1; conditions: cited from earlier work
T3 sequence (P13866 1-664): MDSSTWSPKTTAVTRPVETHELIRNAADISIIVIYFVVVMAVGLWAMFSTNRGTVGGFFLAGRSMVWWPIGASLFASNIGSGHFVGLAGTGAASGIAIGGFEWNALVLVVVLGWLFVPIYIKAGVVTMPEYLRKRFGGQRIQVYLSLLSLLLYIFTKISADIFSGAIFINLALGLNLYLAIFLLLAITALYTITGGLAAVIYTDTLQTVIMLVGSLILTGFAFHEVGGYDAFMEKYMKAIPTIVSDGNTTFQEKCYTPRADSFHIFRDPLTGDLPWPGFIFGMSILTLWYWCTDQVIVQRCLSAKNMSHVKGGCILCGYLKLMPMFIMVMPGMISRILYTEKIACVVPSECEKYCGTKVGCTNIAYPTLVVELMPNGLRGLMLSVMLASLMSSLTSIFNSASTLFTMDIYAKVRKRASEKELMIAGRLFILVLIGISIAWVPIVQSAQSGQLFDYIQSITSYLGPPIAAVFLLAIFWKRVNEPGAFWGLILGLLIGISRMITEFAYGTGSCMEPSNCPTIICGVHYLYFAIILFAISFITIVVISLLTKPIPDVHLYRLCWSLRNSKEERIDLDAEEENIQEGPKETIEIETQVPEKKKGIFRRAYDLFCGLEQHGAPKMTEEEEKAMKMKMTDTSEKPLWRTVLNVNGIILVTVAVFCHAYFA

neuroendocrine cells = conditions: Na+-dependent and phlorizin-sensitive manner; cited from earlier work
control cells = assay: response of control cells to amino sugars; type: cell-based, Xenopus laevis; conditions: 30 mM
Description: as §2, with “The results are illustrated by experiments on single oocytes, but each was representative of at least 3-8 different oocytes.” left out
as §3

SGLT1 [7] = target: T3, SGLT1; assay: response of cells expressing SGLT1 to amino sugars; type: cell-based; design: expressed in transfected cells; host or cells: cells expressing SGLT1; Xenopus oocytes are inferred from 'Using the techniques described above'; conditions: 30 mM
Description: as §2, with “The results are illustrated by experiments on single oocytes, but each was representative of at least 3-8 different oocytes.” left out
as §3

[8] = 2 mM glucose, -70 mV, Na+ buffer pH 5

block of the responses to the amino sugars (hSGLT3 [1]): blocked | inhibition of glucose-induced membrane depolarization (hSGLT3 [1]): blocked | inhibition of glucose-induced membrane depolarization (hSGLT3 [1]; listed as Phlorizin): inhibited the membrane depolarization
SMILES: O=C(CCc1ccc(O)cc1)c1c(O)cc(O)cc1O[C@@H]1O[C@H](CO)[C@@H](O)[C@H](O)[C@H]1O [phlorizin]
block of the effect of glucose on mechanical activity of guinea pig ileum (guinea pig ileum): blocked | food intake [2]: increases food intake | glucose mediated increase in firing rate [3]: blocks

membrane depolarization (hSGLT3 [1]): about 4 mV | maximum current at saturating sugar concentration (Imax) (hSGLT3 [4]; -150 mV, Na+ buffer, n=5): 122±20 nA | EC50 (hSGLT3 [4]; -150 mV, Na+ buffer, n=5, read-out: apparent sugar affinity (K0.5) of current): 36 ± 6 mM | Imax (hSGLT3 [4]; pH 5 in Choline Cl, four oocytes): 2385±651 nA | Imax (hSGLT3 [4]; pH 5 in NaCl, four oocytes): 1725±99 nA | EC50 (hSGLT3 [4]; pH 5 in NaCl, four oocytes, read-out: K0.5): 41 ± 7 mM
SMILES: CO[C@H]1O[C@H](CO)[C@@H](O)[C@H](O)[C@H]1O [αMDG, α-methyl-D-glucopyranoside]
effect on the membrane potential (qualitative) (hSGLT3 [1]): reversibly depolarized the membrane potential | GLP-1 peptide secretion (neuroendocrine cells): stimulates GLP-1 peptide secretion

effect on the membrane potential (hSGLT3 [1]): no effect
SMILES: OC[C@@H](O)[C@@H](O)[C@H](O)[C@H](O)CO [mannitol]

Second part, the compound before the results:

SMILES: O=C(CO)[C@@H](O)[C@H](O)[C@H](O)CO [D-fructose]
effect on the membrane potential (hSGLT3 [1]): no effect

SMILES: O=C[C@H](O)[C@@H](O)[C@H](O)[C@H](O)CO [D-glucose]
depolarization of the membrane potential by phlorizin sensitive inward current (hSGLT3 [1]): up to 50 mV | membrane depolarization (hSGLT3 [1]): about 4 mV | ΔVmax (hSGLT3 [1]; 6 experiments): 26±9 mV | EC50 (hSGLT3 [1]; K0.5 (apparent affinity) of depolarization, 6 experiments, pH 7.5): 60 mM and ~60 mM | effect on the membrane potential (qualitative) (hSGLT3 [1]): reversibly depolarized the membrane potential | maximal depolarization (ΔVm) (hSGLT3 [1]; fit of a single oocyte (FIG. 4B)): 23 mV | activation energy (Ea) of glucose-induced current (hSGLT3 [4]; pH 5, presence and absence of Na+, 10, 22 and 28° C., Arrhenius plots): ~9 kcal/mol | cation uptake in hSGLT3 oocytes (hSGLT3 [5]; 2 mM D-glucose, 5 minutes, Na+ pH 5, n=5): 81 ± 7 pmol | D-glucose uptake in hSGLT3 oocytes (hSGLT3 [5]; 2 mM D-glucose, 5 minutes, Na+ pH 5, n=5, control oocytes 11±0.6): 11 ± 0.5 pmol | glucose uptake in hSGLT3 oocytes compared with control oocytes (hSGLT3 [5]; [8]): identical to that in control oocytes | sugar dependent current equivalent to univalent positive charge (hSGLT3 [5]; [8]): 81±7 pmol per 5 minutes | ratio positive charge / sugar uptake (pSGLT3; acidic pH, n=6): 4.7±0.2 | ratio positive charge / sugar uptake (pSGLT3; neutral pH, n=12): 2.1±0.1 | ratio positive ion uptake / sugar uptake (SGLT1 [6]; Na+ at neutral pH, n=4): 2.1±0.04 | ratio positive ion uptake / sugar uptake (SGLT1 [6]; acidic pH in H+, n=7): 2±0.1

SMILES: O=C[C@H](O)[C@@H](O)[C@@H](O)[C@H](O)CO [D-galactose]
membrane depolarization (hSGLT3 [1]): no effect | effect on the membrane potential (hSGLT3 [1]): no effect

SMILES: O=C[C@H](O)C[C@H](O)[C@H](O)CO [3-deoxy-D-glucose]
effect on the membrane potential (hSGLT3 [1]): failed to affect the membrane potential

SMILES: OC[C@H]1NC[C@H](O)[C@@H](O)[C@@H]1O [Deoxynojirimycin]
EC50 (hSGLT3 [1]; range printed with mixed units (nanomolar to micromolar), read-out: affinities to activate SGLT2): 0.0005 to 0.002 mM | effects on control cells (control cells): no effects | effects on cells expressing SGLT1 (SGLT1 [7]): no effects

SMILES: CCN1C[C@H](O)[C@@H](O)[C@H](O)[C@H]1CO [N-(n-ethyl)deoxynojirimycin]
effects on control cells (control cells): no effects | effects on cells expressing SGLT1 (SGLT1 [7]): no effects
